Test results reported in the NIST ThermoML archive (doi:10.1016/j.tca.2018.05.007).
Values joined by “and” are separate entries in the source; they are usually repeats but may differ in a detail not shown here. Equal values may be shown once. ± gives the expanded uncertainty stated by the source.

Details: Liquid, Rate of evaporation

OCCN(CCO)CCO [triethanolamine]
Details | vapor or sublimation pressure
365 K | 0.000835 ± 0.00034 kPa
375 K | 0.002129 ± 0.00086 kPa and 0.002041 ± 0.00083 kPa
385 K | 0.005005 ± 0.002 kPa and 0.004526 ± 0.0018 kPa
395 K | 0.01093 ± 0.0044 kPa and 0.009521 ± 0.0039 kPa
400 K | 0.01404 ± 0.0057 kPa
405 K | 0.02229 ± 0.0091 kPa and 0.01908 ± 0.0077 kPa
410 K | 0.02726 ± 0.011 kPa
415 K | 0.04274 ± 0.017 kPa and 0.03658 ± 0.015 kPa and 0.03733 ± 0.015 kPa
420 K | 0.05078 ± 0.021 kPa
425 K | 0.07739 ± 0.031 kPa and 0.06729 ± 0.027 kPa and 0.06993 ± 0.028 kPa
430 K | 0.09108 ± 0.037 kPa and 0.0987 ± 0.04 kPa and 0.0881 ± 0.036 kPa
435 K | 0.133 ± 0.054 kPa and 0.1191 ± 0.048 kPa and 0.1259 ± 0.051 kPa
440 K | 0.1577 ± 0.064 kPa and 0.1715 ± 0.07 kPa and 0.1578 ± 0.064 kPa
445 K | 0.2176 ± 0.088 kPa and 0.2036 ± 0.083 kPa and 0.2184 ± 0.089 kPa
450 K | 0.2644 ± 0.11 kPa and 0.2908 ± 0.12 kPa and 0.2755 ± 0.11 kPa
455 K | 0.3407 ± 0.14 kPa and 0.3368 ± 0.14 kPa and 0.3662 ± 0.15 kPa
460 K | 0.4694 ± 0.19 kPa [middle of 4 runs]
465 K | 0.5116 ± 0.21 kPa and 0.5424 ± 0.22 kPa and 0.5946 ± 0.24 kPa
470 K | 0.7812 ± 0.32 kPa and 0.7818 ± 0.32 kPa
475 K | 0.9374 ± 0.38 kPa
480 K | 1.165 ± 0.47 kPa and 1.242 ± 0.51 kPa and 1.275 ± 0.52 kPa
490 K | 1.936 ± 0.79 kPa and 2.038 ± 0.83 kPa
500 K | 3.196 ± 1.3 kPa
510 K | 4.926 ± 2 kPa
515 K | 6.077 ± 2.5 kPa
